In patent US11970454B1, “Ethyl-2[9-2(2-hydroxyquinolin-3-yl)-1,8-dioxo-3,4,9,10-tetrahydroacridine-10-yl]-acetate as an antimicrobial compound” (KING FAISAL UNIVERSITY, priority 2023, dated 2024):

Legend:
Staphylococcus aureus = assay: Antimicrobial screening by agar dilution, Staphylococcus aureus; assay type: cell-based; conditions: after 10, 20, 40 and 60 minutes at all dilutions 1:100, 1:200, 1:400, 1:800
Procedure: (§1) The antibacterial properties of the synthesized compound ethyl 2-[9-(2-hydroxyquinolin-3-yl)-1,8-dioxo-3,4,9,10-tetrahydroacridine-10-yl]-acetate were studied by the method of agar dilution. Test solutions of each compound was prepared in concentration of 1% using dimethylformamide as a solvent then they are diluted in physiological solution to obtain the final experimental dilutions 1:100, 1:200, 1:400, 1:800. The effect of these substances are compared with furacillin in a controllable study. The testing microbes used were gram positive bacteria Staphylococcus aureus, gram negative bacteria Pseudomonas aeruginosa and Escherichia coli and Candida albicans fungus. The experiments used for this survey were meat-pentonlu agar (EPA) for cultivation of bacteria and Saburo environment for the fungus. Each experiment used 1 mL of test solution on each plate […]. Two drops of emulsified with microbes feel were added. All experimental samples were taken from the agar after 10, 20, 40, 60 minutes in the environment on the basis of Patrk planted. The bacteria were cultivated at a temperature of 37° C. for 1 day and the mushroom was kept in a thermostat for […] at a temperature of 28° C. Then results were checked.

Escherichia coli = assay: Antimicrobial screening by agar dilution, Escherichia coli; assay type: cell-based; conditions: after 10, 20, 40 and 60 minutes at all dilutions 1:100, 1:200, 1:400, 1:800
Procedure: as §1

Pseudomonas aeruginosa = assay: Antimicrobial screening by agar dilution, Pseudomonas aeruginosa; assay type: cell-based; conditions: after 10, 20, 40 and 60 minutes at all dilutions 1:100, 1:200, 1:400, 1:800
Procedure: as §1

Candida albicans = assay: Antimicrobial (antifungal) screening by agar dilution, Candida albicans; assay type: cell-based; conditions: after 10, 20, 40 and 60 minutes at all dilutions 1:100, 1:200, 1:400, 1:800
Procedure: as §1

melting point: 228 °C
Structure (SMILES): CCOC(=O)CN1C2=C(C(=O)CCC2)C(c2cc3ccccc3nc2O)C2=C1CCCC2=O [ethyl 2-[9-(2-hydroxyquinolin-3-yl)-1,8-dioxo-3,4,9,10-tetrahydroacridine-10-yl]-acetate]
inhibition activity (Staphylococcus aureus): highest inhibition activity | inhibition activity (Escherichia coli): highest inhibition activity | inhibition activity (Pseudomonas aeruginosa): highest inhibition activity | inhibition activity (Candida albicans): highest inhibition activity
